Laboratory results as given in ChEMBL document CHEMBL5291721, “A preclinical secondary pharmacology resource illuminates target-adverse drug reaction associations of marketed drugs” (Nat Commun, 2023).

Tests used:
Adenosine receptor A2a = Adenosine receptor A2a (Homo sapiens, UniProt P29274)
[1] = target: T1, Alpha-2C adrenergic receptor (Homo sapiens, UniProt P18825); assay type: functional
T1 sequence (P18825 whole entry): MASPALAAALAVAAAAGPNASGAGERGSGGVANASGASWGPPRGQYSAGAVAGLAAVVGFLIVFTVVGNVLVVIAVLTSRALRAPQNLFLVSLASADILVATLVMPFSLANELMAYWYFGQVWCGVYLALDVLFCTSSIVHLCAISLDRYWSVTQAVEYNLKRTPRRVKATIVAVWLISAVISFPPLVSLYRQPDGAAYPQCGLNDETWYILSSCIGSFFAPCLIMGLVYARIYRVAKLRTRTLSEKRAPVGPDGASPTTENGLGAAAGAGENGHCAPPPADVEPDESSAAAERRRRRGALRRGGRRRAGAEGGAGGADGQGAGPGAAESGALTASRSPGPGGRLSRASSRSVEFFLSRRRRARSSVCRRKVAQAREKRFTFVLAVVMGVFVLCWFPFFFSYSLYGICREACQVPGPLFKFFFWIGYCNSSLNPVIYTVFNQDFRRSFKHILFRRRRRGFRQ

[2] = target: T2, Type-1 angiotensin II receptor (Homo sapiens, UniProt P30556)
T2 sequence (P30556 whole entry): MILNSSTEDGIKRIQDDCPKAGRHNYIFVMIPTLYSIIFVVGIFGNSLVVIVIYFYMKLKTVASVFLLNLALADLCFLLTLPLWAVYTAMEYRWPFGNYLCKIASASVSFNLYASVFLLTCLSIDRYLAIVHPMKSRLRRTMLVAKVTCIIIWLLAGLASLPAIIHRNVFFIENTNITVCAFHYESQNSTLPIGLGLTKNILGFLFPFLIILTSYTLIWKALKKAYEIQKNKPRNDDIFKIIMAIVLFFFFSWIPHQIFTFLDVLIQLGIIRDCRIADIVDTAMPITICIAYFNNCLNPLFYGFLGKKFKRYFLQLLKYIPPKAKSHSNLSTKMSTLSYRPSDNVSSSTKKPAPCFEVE

Vasopressin V2 receptor = Vasopressin V2 receptor (Homo sapiens, UniProt P30518)
[3] = target: Glutamate receptor ionotropic, NMDA 1 (Rattus norvegicus, UniProt P35439)
Motilin receptor = Motilin receptor (Homo sapiens, UniProt O43193)
[4] = target: T3, Neuropeptide Y receptor type 1 (Homo sapiens, UniProt P25929); conditions: read-out: AC50
T3 sequence (P25929 whole entry): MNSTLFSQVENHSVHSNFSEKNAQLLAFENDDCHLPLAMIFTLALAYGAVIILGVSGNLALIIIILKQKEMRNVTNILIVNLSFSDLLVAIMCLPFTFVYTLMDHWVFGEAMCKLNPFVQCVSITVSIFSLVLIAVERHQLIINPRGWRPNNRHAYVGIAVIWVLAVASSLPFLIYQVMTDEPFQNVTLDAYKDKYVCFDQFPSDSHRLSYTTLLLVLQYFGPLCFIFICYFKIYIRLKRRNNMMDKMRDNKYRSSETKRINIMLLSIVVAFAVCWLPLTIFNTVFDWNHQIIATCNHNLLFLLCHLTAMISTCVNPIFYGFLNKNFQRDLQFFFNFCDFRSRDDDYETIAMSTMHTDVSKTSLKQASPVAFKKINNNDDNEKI

[5] = target: Delta-type opioid receptor (Homo sapiens, UniProt P41143)
[6] = target: Sodium-dependent dopamine transporter (Homo sapiens, UniProt Q01959)
[7] = target: Sodium-dependent noradrenaline transporter (Homo sapiens, UniProt P23975)
[8] = target: T4, Amine oxidase [flavin-containing] A (Homo sapiens, UniProt P21397); assay type: functional
T4 sequence (P21397 whole entry): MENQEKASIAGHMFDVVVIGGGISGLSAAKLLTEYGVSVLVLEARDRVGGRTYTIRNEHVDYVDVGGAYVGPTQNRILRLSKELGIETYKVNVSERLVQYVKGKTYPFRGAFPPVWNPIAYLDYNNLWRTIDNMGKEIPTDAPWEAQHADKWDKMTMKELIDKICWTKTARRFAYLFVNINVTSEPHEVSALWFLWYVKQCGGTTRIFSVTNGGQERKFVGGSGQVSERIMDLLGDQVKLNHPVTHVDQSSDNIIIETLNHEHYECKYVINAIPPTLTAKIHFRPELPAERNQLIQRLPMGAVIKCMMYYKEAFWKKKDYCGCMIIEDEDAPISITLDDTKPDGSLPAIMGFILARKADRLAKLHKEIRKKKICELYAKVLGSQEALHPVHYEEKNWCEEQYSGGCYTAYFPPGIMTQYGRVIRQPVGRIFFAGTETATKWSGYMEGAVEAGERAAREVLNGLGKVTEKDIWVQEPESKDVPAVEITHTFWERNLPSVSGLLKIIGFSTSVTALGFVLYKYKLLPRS

[9] = target: cGMP-inhibited 3',5'-cyclic phosphodiesterase 3A (Homo sapiens, UniProt Q14432); assay type: functional
[10] = target: T5, Alpha-2A adrenergic receptor (Homo sapiens, UniProt P08913); assay type: functional, cell-based
T5 sequence (P08913 whole entry): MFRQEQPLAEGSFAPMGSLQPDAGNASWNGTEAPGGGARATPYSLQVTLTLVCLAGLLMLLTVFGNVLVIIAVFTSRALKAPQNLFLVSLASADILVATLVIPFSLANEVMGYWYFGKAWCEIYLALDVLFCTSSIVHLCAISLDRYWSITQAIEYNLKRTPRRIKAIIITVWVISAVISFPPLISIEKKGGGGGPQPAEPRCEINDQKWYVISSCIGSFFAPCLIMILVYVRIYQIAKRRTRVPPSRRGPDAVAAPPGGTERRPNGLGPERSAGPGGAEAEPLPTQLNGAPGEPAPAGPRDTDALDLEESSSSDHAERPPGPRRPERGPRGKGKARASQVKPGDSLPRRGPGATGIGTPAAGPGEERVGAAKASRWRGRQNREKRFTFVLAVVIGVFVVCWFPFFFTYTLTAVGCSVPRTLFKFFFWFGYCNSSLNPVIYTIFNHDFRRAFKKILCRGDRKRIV
Further: assay procedure not described here.

Sequence of Sodium-dependent noradrenaline transporter (P23975 whole entry): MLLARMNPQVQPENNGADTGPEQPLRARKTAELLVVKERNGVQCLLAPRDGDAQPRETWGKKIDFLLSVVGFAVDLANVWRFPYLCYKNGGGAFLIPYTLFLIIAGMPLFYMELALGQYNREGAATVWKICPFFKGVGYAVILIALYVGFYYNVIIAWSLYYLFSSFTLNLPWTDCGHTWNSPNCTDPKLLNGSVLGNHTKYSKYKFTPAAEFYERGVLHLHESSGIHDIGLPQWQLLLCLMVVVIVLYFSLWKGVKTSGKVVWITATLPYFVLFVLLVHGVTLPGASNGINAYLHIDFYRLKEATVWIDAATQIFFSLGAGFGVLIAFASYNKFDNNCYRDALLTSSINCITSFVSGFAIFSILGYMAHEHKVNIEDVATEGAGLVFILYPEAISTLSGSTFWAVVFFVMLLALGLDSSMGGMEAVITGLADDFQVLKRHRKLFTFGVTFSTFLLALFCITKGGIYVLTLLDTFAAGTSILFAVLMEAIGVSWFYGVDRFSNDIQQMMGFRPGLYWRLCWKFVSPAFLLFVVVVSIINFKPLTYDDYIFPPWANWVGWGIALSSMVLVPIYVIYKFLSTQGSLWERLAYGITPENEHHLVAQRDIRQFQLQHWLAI
Sequence of Adenosine receptor A2a (P29274 whole entry): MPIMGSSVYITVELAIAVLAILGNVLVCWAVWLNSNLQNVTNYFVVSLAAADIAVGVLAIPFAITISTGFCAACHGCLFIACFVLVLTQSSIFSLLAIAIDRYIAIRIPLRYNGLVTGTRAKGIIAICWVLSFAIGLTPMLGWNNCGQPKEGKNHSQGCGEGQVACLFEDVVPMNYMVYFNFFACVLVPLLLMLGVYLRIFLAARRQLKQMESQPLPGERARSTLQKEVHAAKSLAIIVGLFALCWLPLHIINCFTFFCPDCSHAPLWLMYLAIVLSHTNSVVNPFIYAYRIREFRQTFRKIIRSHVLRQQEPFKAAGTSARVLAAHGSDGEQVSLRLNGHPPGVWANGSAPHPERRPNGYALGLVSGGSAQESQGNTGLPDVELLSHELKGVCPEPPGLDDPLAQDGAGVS
Sequence of Vasopressin V2 receptor (P30518 whole entry): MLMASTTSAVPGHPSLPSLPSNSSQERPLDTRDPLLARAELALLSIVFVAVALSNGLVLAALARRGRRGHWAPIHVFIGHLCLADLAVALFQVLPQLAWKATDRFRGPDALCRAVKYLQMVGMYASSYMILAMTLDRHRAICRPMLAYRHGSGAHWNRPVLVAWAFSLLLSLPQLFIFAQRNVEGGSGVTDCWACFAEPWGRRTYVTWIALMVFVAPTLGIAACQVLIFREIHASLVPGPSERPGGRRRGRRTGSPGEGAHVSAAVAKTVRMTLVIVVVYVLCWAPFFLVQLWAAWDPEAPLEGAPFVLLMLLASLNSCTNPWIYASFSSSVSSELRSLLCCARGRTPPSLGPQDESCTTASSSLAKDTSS
Sequence of cGMP-inhibited 3',5'-cyclic phosphodiesterase 3A (Q14432 whole entry): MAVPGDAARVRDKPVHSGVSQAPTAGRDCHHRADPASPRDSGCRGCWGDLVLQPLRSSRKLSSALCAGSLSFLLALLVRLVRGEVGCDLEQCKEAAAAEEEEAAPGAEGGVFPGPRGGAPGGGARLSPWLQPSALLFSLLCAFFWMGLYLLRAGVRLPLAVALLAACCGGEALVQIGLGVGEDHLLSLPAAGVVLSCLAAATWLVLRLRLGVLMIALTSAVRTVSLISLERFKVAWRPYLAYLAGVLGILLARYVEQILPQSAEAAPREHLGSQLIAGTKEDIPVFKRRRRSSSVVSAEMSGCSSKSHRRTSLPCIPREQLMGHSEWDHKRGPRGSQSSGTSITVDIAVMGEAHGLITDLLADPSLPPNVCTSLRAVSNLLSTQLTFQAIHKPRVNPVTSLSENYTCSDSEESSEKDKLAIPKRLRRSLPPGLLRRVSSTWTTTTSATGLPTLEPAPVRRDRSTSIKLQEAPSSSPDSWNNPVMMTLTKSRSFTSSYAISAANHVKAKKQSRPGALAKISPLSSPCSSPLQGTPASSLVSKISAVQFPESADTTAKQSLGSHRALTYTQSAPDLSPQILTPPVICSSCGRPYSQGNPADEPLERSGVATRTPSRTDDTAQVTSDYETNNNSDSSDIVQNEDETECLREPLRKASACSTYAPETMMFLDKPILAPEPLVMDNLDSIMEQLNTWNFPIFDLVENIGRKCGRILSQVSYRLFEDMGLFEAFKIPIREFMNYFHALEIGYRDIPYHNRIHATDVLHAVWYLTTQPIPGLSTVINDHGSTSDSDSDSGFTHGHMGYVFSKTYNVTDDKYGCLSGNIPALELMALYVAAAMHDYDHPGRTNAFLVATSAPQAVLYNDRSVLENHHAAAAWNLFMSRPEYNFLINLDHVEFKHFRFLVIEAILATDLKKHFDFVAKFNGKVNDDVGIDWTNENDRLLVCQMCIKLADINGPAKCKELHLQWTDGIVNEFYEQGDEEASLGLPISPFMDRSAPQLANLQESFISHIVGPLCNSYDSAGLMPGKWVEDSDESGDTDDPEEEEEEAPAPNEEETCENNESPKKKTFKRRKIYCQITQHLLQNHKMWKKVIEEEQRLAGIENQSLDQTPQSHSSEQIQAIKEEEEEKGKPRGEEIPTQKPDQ
Sequence of Delta-type opioid receptor (P41143 whole entry): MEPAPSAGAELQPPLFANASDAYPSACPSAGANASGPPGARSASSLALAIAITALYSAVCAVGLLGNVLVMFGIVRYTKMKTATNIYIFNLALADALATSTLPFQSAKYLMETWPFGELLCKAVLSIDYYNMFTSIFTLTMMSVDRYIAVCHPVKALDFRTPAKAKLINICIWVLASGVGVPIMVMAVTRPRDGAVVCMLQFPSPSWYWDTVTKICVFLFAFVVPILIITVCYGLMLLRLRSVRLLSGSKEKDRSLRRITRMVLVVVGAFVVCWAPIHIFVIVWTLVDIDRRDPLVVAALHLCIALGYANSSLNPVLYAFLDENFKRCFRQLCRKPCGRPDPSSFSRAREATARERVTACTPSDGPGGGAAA
Sequence of Sodium-dependent dopamine transporter (Q01959 whole entry): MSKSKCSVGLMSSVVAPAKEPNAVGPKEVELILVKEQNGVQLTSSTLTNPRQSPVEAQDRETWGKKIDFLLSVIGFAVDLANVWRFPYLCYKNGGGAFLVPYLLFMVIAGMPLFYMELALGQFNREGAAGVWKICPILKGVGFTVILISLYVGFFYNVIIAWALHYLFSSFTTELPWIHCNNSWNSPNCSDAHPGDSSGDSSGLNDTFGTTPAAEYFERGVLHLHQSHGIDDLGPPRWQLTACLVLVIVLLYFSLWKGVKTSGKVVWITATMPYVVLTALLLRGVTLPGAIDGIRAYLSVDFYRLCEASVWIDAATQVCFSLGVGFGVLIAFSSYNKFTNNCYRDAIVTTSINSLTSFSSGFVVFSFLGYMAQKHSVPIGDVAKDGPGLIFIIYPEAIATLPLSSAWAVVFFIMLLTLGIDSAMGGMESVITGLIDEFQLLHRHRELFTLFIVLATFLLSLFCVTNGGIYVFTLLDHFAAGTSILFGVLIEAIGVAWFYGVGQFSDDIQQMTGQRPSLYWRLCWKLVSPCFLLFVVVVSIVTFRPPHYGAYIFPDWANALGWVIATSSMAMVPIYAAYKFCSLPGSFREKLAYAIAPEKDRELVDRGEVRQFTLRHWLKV
Sequence of Motilin receptor (O43193 whole entry): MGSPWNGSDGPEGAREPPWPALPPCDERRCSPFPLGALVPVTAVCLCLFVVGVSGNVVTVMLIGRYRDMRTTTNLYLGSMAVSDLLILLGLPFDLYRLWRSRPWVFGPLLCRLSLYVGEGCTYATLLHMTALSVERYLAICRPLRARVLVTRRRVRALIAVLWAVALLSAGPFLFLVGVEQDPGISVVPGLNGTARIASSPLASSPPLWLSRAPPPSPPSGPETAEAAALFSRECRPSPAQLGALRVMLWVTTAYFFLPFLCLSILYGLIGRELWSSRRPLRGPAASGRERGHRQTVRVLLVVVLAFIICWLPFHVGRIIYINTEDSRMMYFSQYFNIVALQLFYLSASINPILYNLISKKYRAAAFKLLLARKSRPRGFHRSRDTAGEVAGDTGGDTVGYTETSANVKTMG

Row | Compound | AC50 (Adenosine receptor A2a) [µM] | AC50 [1] [µM] | AC50 [2] [µM] | AC50 (Vasopressin V2 receptor) [µM] | AC50 [3] [µM] | AC50 (Motilin receptor) [µM] | AC50 [4] [µM] | AC50 [5] [µM] | AC50 [6] [µM] | AC50 [7] [µM] | AC50 [8] [µM] | AC50 [9] [µM] | AC50 [10] [µM]
1 | CCC[C@H](NC(=O)[C@@H]1[C@H]2CCC[C@H]2CN1C(=O)[C@@H](NC(=O)[C@@H](NC(=O)c1cnccn1)C1CCCCC1)C(C)(C)C)C(=O)C(=O)NC1CC1 | > 30 | > 10 | > 30 | > 30 | > 10 | > 10 | > 30 | > 30 | > 10 | > 10 | > 10 | > 30 | 
2 | CN1CCC(=C2c3ccccc3CCc3cccnc32)CC1 [AZATADINE] | > 30 |  | > 30 | > 30 | > 10 | > 10 | > 30 | > 30 | > 30 | > 30 | > 10 | > 30 | > 10
3 | CCC(C)C1(CC)C(=O)NC(=O)NC1=O (configuration not stated) [BUTABARBITAL] | > 30 | > 30 | > 30 | > 30 |  | > 30 |  |  | > 30 | > 30 | > 30 | > 30 | > 30
4 | O=C(O)c1cn(C2CC2)c2cc(N3CCNCC3)c(F)cc2c1=O [CIPROFLOXACIN] | > 30 |  | > 30 | > 30 |  | > 10 | > 30 |  |  |  |  | > 30 | 
5 | Cc1cnc(C(=O)NCCc2ccc(S(=O)(=O)NC(=O)NC3CCCCC3)cc2)cn1 [GLIPIZIDE] | > 30 | > 10 | > 30 | > 30 | > 10 | > 10 | > 30 | > 10 |  |  | > 10 | > 30 | > 10
6 | CC(C)NCC(O)c1ccc(O)c(O)c1 (configuration not stated) [ISOPROTERENOL] | > 30 |  | > 30 | > 30 | > 10 | > 10 | > 30 | > 10 | > 30 | > 30 | > 10 | 18 | 
7 | Oc1ccc2c(c1)CC[C@H](c1ccccc1)[C@@H]2c1ccc(OCCN2CCCC2)cc1 [LASOFOXIFENE] | > 30 |  | > 30 | 15 | > 30 | 2.9 | 25 | 7.2 | 0.117 | 2 | > 30 | > 30 | 10
8 | CN1CCN(C2=Nc3ccccc3Oc3ccc(Cl)cc32)CC1 [LOXAPINE] | > 30 |  | > 30 | > 30 | > 10 | > 10 | > 30 | 8.51 | > 10 | 1.53 | > 10 | > 30 | 
9 | OC1(c2ccc(Cl)cc2)c2ccccc2C2=NCCN21 (configuration not stated) [MAZINDOL] | > 30 | > 30 | > 30 | > 30 | > 30 | > 30 | > 30 | > 30 |  | 0.027 | > 30 | > 30 | > 30
10 | CC12CC3CC(C)(C1)CC(N)(C3)C2 [MEMANTINE] | > 30 | > 10 | > 30 | > 30 |  | > 10 | > 30 | > 30 | > 30 | > 30 | > 10 | > 30 | > 10
11 | CN(C)CCCNc1c2ccccc2nc2cccc([N+](=O)[O-])c12 [NITRACRINE] | 17 | 5.2 | > 30 | > 30 | > 30 | > 30 | > 30 |  | > 30 | > 30 | 19 | > 30 | > 30
12 | O=[N+]([O-])c1ccc(O)c2ncccc12 [NITROXOLINE] |  | 7.1 |  |  | > 30 |  |  | 5.7 |  |  | > 30 | > 30 | > 30
13 | CCCc1nc(C(C)(C)O)c(C(=O)O)n1Cc1ccc(-c2ccccc2-c2nnn[nH]2)cc1 [OLMESARTAN] |  |  | 0.0004 |  |  |  |  |  |  |  |  |  | 
14 | CC[C@@H]([C@H](C)O)n1ncn(-c2ccc(N3CCN(c4ccc(OC[C@@H]5CO[C@@](Cn6cncn6)(c6ccc(F)cc6F)C5)cc4)CC3)cc2)c1=O [POSACONAZOLE] |  | > 30 |  |  |  |  |  | > 30 | > 30 | > 30 | > 30 | > 30 | 
15 | CCCN[C@H]1CCc2nc(N)sc2C1 [PRAMIPEXOLE] | > 30 | > 10 | > 30 | > 30 | > 10 | > 10 | > 30 | > 30 | > 30 | > 30 | > 10 | > 30 | 
16 | CNCc1ccc(-c2[nH]c3cc(F)cc4c3c2CCNC4=O)cc1 [RUCAPARIB] | > 30 | > 10 | > 30 | > 30 |  | > 30 | > 30 |  | > 30 | 20.7 | > 10 | > 30 | 
17 | C[C@H](Cc1cc2c(c(C(N)=O)c1)N(CCCO)CC2)NCCOc1ccccc1OCC(F)(F)F [SILODOSIN] |  |  |  |  |  |  |  |  |  |  |  |  | > 30
18 | Cc1cccc(N2CC(CO)OC2=O)c1 (configuration not stated) [TOLOXATONE] | > 30 | > 30 | > 30 | > 30 | > 30 | > 30 | > 30 |  | > 30 |  |  | > 30 | > 30
